How the values were obtained:
Oryctolagus cuniculus = organism: Oryctolagus cuniculus; test: Antagonistic activity towards endothelin A receptor was evaluated using the rabbit iliac artery in presence of 3% human serum albumin; format: functional
[1] = Bioavailability in rat (dose 1 mg/kg i.v.); format: ADME, organism-based; conditions: in vivo, iv
[2] = Bioavailability in rat (dose 3 mg/kg p.o.); format: ADME, organism-based; conditions: in vivo, po
Endothelin-1 receptor = biological target: T1, Endothelin-1 receptor (Homo sapiens, UniProt P25101); test: Inhibitory activity against [125I]ET1 binding to human endothelin A receptor
T1 sequence (P25101 whole entry): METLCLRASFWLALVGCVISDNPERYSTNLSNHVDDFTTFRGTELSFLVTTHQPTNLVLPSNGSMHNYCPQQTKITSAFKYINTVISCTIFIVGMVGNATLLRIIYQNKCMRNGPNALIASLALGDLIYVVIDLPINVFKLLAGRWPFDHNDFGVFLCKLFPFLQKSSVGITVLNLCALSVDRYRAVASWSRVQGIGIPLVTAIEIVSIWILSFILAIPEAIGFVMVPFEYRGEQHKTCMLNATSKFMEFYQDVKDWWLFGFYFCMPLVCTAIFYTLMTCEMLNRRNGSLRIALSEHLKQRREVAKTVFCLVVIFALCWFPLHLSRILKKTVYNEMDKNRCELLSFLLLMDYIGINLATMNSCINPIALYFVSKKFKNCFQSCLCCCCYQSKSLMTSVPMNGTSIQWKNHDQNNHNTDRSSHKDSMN

Mus musculus = test: In vivo efficacy of compound was determined in mouse after intravenous administration; format: functional
[3] = biological target: T2, Endothelin receptor type B (Homo sapiens, UniProt P24530); test: Inhibitory activity against [125I]ET1 binding to human endothelin B receptor
T2 sequence (P24530 whole entry): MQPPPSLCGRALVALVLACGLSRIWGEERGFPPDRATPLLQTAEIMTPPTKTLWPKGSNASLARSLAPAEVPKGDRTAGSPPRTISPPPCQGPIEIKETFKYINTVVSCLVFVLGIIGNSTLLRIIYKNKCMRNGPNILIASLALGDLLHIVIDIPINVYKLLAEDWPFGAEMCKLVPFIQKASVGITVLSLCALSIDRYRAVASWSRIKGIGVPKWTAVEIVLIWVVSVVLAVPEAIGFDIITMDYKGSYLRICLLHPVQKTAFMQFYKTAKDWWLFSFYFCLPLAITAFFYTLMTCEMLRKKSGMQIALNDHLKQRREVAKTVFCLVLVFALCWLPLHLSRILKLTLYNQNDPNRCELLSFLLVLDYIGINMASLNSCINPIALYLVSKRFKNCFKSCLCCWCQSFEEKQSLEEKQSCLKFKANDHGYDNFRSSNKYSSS

bioavailability [1]: 70%
bioavailability [2]: 70%
IC50 (Endothelin-1 receptor): 0.025 nM
IC50 [3]: 48 nM
Compound: COCC(C)Cc1cc(OC)ccc1[C@@H]1c2nc(NC(C)C)ccc2[C@H](c2ccc3c(c2)OCO3)[C@H]1C(=O)O (stereo in doubt; form 1)
PKB (Oryctolagus cuniculus): 8.33
AD50 (Mus musculus): 0.039 MPK
